Laboratory results reported in publication PMC4279419, “Angiostatic, tumor inflammatory and anti-tumor effects of CXCL4^47–70 and CXCL4L1^47–70 in an EGF-dependent breast cancer model” (Oncotarget, 2014).
Where no end group is shown, it is not given here.

Legend:
[1] = system: human dermal lymphatic microvascular endothelial cells (HLEC); assay: HLEC MTT proliferation assay; type: cell-based; details: control PI=1, 3 to 4 days, MTT, mean ± s.e.m., n=4
Experimental: First, HMVEC and HLEC were seeded at 5 × 10^3 cells/well in EBM-2 + 1% FCS in a 96-well plate, whereas MDA-MB-231 were starved of growth factors overnight by replacing their growth medium with DMEM (serum-free) prior to seeding the tumor cells at 15 × 10^2 cells/well in DMEM + 1% FCS. As for the rest of the assay, the same protocol applies to all cells. Once adherent, cells were incubated with different concentrations of the peptides CXCL4^47–70 and CXCL4L1^47–70 as single stimuli or in combination with recombinant human EGF (3 ng/ml; R&D Systems, Minneapolis, MN) at 37°C/5% CO2. All conditions were tested in triplicate or quadruplicate. After 3 to 4 days, stimulation medium was removed and a sterile MTT solution was added [0.04 g/100 ml thiazolyl blue (Sigma-Aldrich, St. Louis, MO) in 20% PBS/80% RPMI without phenol red (Lonza)] for 3 to 4 hours. The formed formasan crystals were dissolved by replacing the MTT solution with acidic propanol (0.04 M HCl, 0.1% (v/v) Nondet P-40 in absolute isopropanol) and shaking the plate, shielded from light, for 10 minutes. Optical density (OD) was determined at 570 nm and 630 nm. The obtained ODs were processed to proliferation indexes (PI), expressed relative to appropriate buffer controls, i.e. ΔOD570–630X over ΔOD570–630CO.

[2] = system: CCL5; assay: CCL5 binding (heterodimerization) assay in 96-well plates; set-up: species or system human; details: biotinylated peptides; 37 °C; 50 ng/ml CCL5 coated; OD450; n=3
Experimental: (§1) GAG, EGF and CCL5 binding were quantified in 96-well plates following a similar protocol. GAG binding was evaluated by immobilizing low molecular weight heparin (Iduron, Manchester, UK) on EpranEx plates (BD Biosciences), whereas EGF as well as CCL5 recombinant human protein (R&D Systems and PeproTech, respectively) was immobilized on high protein-binding ELISA plates (Corning life sciences, Tewksbury, MA). In brief, 25 μg/ml GAG [diluted in assay buffer 100 mM NaCl, 50 mM NaAc, pH 7.2, and 0.2% (v/v) Tween-20], 2 μg/ml EGF or 50 ng/ml CCL5 (both diluted in PBS), was coated overnight at room temperature on 96-well plates. Plates were washed three times with either assay buffer or 0.5% (v/v) Tween 20 in PBS and blocked at 37°C with buffer enriched with either 0.2% (w/v) gelatin (heparin binding assay) or 0.1% (w/v) casein (EGF or CCL5 binding assay). Subsequently, a dilution curve of biotinylated CXCL4L1^47–70 and CXCL4^47–70 peptide was pipetted on the plate and incubated at 37 °C to allow interaction with heparin, EGF or CCL5. After washing, retained biotinylated peptide was detected by peroxidase-conjugated streptavidin. Peroxidase activity was quantified by measuring the conversion of 3,3′,5,5′-tetramethylbenzidine (Sigma-Aldrich) at 450 nm.

[3] = system: p21 in HMVEC; assay: Intracellular p21 content in HMVEC (ELISA); type: cell-based, human; details: 15 h, mean ± s.e.m.
Experimental: Signaling assays were slightly adapted to the signaling molecules of interest in this study. HMVEC were stimulated with EGF (20 ng/ml) as a single stimulus or in combination with the peptides CXCL4^47–70 and CXCL4L1^47–70 (0.3 to 10 μg/ml) in order to evaluate their impact on the cell cycle-arresting p21. After 15 hours, the cells were washed three times with ice-cold PBS to stop the stimulation and lysis buffer [1 mM EDTA, 0.5% (v/v) Triton-X, 10 mM NaF, 150 mM NaCl, 1 mM DTT in PBS; pH 7.2–7.4] supplemented with a protease inhibitor cocktail (Sigma) was added. Cell residue was removed from the collected lysates by centrifugation (4°C, 10 min, 1666g). Lastly, the intracellular p21 content was determined by DuoSet® IC ELISA (cat n° DYC1047, R&D Systems) while, in parallel, total protein content was measured in a bicinchoninic acid (BCA) protein assay (Pierce, Rockford, IL).

[4] = system: EGF; assay: EGF binding (heterodimerization) assay in 96-well plates; set-up: species or system human; details: amino-terminally biotinylated peptides; 37 °C; 2 μg/ml EGF coated; OD450; n=3
Experimental: as §1

[5] = system: endothelial cell; details: cited from earlier work
Experimental: We investigated whether CXCL4^47–70 and CXCL4L1^47–70 counteracted other growth factors with similar efficiency. Consistent with previous work, both CXCL4^47–70 and CXCL4L1^47–70 (0.4 μg/ml) reduced FGF2-induced GM7373 prolifera ...

[6] = system: MDA-MB-231 breast tumors in SCID mice; assay: MDA-MB-231 tumor growth in SCID mice; type: in vivo; details: 2.5 μg intratumoral 3×/week from day 3, mean ± s.e.m., n=10; for tumor volume (external), day 11 / mean tumor volume (external), day 25: calipers; for tumor volume (external), day 11: vehicle 176 ± 56, p<0.001 (CXCL4^47–70), p=0.007 (CXCL4L1^47–70); for mean tumor volume (external), day 25: vehicle 1116 ± 149, p=0.121 (CXCL4L1^47–70); for mean tumor volume (external), day 25 / resected tumor mass, day 27 or 28: p=0.002 (CXCL4^47–70); for resected tumor volume, day 27 or 28: vehicle 845 ± 177, p=0.001 (CXCL4^47–70), p=0.256 (CXCL4L1^47–70); for resected tumor mass, day 27 or 28: vehicle 1464 ± 277, p=0.091 (CXCL4L1^47–70)
Experimental: SCID mice were bred in specific-pathogen-free conditions in the Experimental Animal Breeding Facility of the University of Leuven (KU Leuven) and fed sterilized food and water. All animal experiments were conducted in agreement with the Ethical Committee for Animal Care and Use of the KU Leuven and executed under license number LA1210243. 7- to 10-week-old SCID mice were used throughout the experiments. MDA-MB-231 cells in log growth phase (6 × 10^6 cells resuspended in 200 μl of PBS) were injected subcutaneously (s.c.) on day 0 in the right dorsal flank. Animals were treated by intratumoral injection with control, 2.5 μg synthetic human CXCL4^47–70 peptide or synthetic human CXCL4L1^47–70 peptide three times a week starting from day 3. The external tumor volume was measured with calipers thrice a week and calculated using the formula (4πab2)/3 in which a and b are the largest and smallest radius, respectively. On day 27 or 28, mice were sacrificed and tumors were resected. The exact tumor volume of the resected tumor, based on three measured radii (a, b and c), was calculated by the formula (4πabc)/3. A portion of the tumors was stored at −70°C for generation of mRNA extracts and another part was processed for flow cytometry.

[7] = peptide 0.3 μg/ml, p=0.030 (CXCL4^47–70), p=0.312 (CXCL4L1^47–70)
[8] = peptide 3 μg/ml + EGF 20 ng/ml, n=9, p=0.039 (CXCL4^47–70), n=5, p=0.033 (CXCL4L1^47–70) versus EGF

Substance	Proliferation index (PI), baseline [1, 7]	Proliferation index (PI), baseline ([1]; peptide 1 μg/ml, p=0.030)	Proliferation index (PI), baseline ([1]; peptide 3 μg/ml, p=0.030)	binding to CCL5-coated plate [2]	intracellular p21 relative to control (100%), with EGF [3, 8] [%]	binding to EGF-coated plate [4]	block of FGF2-induced endothelial cell motility and proliferation [5]	tumor volume (external), day 11 [6] [mm^3]	mean tumor volume (external), day 25 [6] [mm^3]	resected tumor volume, day 27 or 28 [6] [mm^3]	resected tumor mass, day 27 or 28 [6] [mg]	intracellular p21 relative to control (100%), with EGF ([3]; peptide 1 μg/ml + EGF 20 ng/ml, n=6, p=0.039 versus EGF) [%]	intracellular p21 relative to control (100%), with EGF ([3]; peptide 10 μg/ml + EGF 20 ng/ml, n=5, p=0.005 versus EGF) [%]
CXCL4L1^47–70: synthetic human carboxy-terminal peptide restricted to the last 24 amino acids of CXCL4L1, Fmoc chemistry	0.90 ± 0.05	0.82 ± 0.05	0.66 ± 0.04	directly and equally well interacted with CCL5	115.06 ± 17.41	equally well in a dose-dependent manner	retained the ability to block FGF2-induced endothelial cell motility and proliferation	61 ± 23	719 ± 153	647 ± 161	953 ± 208	–	–
CXCL4^47–70: synthetic human carboxy-terminal peptide restricted to the last 24 amino acids of CXCL4, Fmoc chemistry (NGRKICLDLQAPLYKKIIKKLLES; not fully specified (N-terminus))	0.70 ± 0.06	0.69 ± 0.06	0.37 ± 0.04	directly and equally well interacted with CCL5	100.02 ± 8.67	equally well in a dose-dependent manner	retained the ability to block FGF2-induced endothelial cell motility and proliferation	24 ± 6	438 ± 97	308 ± 61	523 ± 108	106.90 ± 15.12	125.51 ± 15.05
